# Literature values, collected in PMC3249774 (Research in Pharmaceutical Sciences, 2011).
# Test system: neuroblastoma cells
# Conditions: cells treated with DFO
structure (smiles),measurement,value
CC(=O)N(O)CCCCCNC(=O)CCC(=O)N(O)CCCCCNC(=O)CCC(=O)N(O)CCCCCN [DFO],Sensitivity of neuroblastoma cells relative to normal bone marrow cells,10 fold
